Measured values published in patent US4178442A, “Novel cinnamoyles piperazines and homopiperazines, the method of preparing them and their application in therapeutics” (Delalande S. A., priority 1977, dated 1979).
Where a name gives a salt, the structure may show the parent alone. Read-outs that look alike come from different tables or passages of the source.

Columns and labels:
in vivo = conditions: for LD50: read-out: Toxicity: LD50; for mortality: read-out: Toxicity (Mortality)
Text: *LD50 or percentage of mortality which is given between brackets

anaesthetized dog = assay: Antiangorous activity on anaesthetized dog: consumption of oxygen in the left ventricule and cardiac effort (KATZ's index); format: in vivo; conditions: for inhibition in vivo at […]: 0.15 mg/kg i.v. slow perfusion
Outline: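 Dogs anaesthetized with sodium pentobarbital 30 mg/kg i.v.; compounds given by slow i.v. perfusion. Left ventricular O2 consumption = coronary venous flow (Morawitz cannula in coronary sinus) × arteriovenous O2 difference; cardiac effort (Katz index) = mean arterial pressure × heart rate from D2 ECG.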

[1] = Canis lupus familiaris, iv, 0.14 mg/kg i.v. slow perfusion, read-out: Diminution in consumption of O2
[2] = Canis lupus familiaris, iv, 0.14 mg/kg i.v. slow perfusion, read-out: Diminution in the cardiac effort (IK)
[3] = Canis lupus familiaris, iv, read-out: Diminution in consumption of O2
[4] = Canis lupus familiaris, iv, read-out: Diminution in the cardiac effort (IK)
[5] = Canis lupus familiaris, iv, 2.5 mg/kg i.v. slow perfusion, read-out: Diminution in consumption of O2
[6] = Canis lupus familiaris, iv, 2.5 mg/kg i.v. slow perfusion, read-out: Diminution in the cardiac effort (IK)
[7] = 0.625 mg/kg i.v. slow perfusion
[8] = Canis lupus familiaris, iv, 0.625 mg/kg i.v. slow perfusion, read-out: Diminution in consumption of O2
[9] = Canis lupus familiaris, iv, 0.625 mg/kg i.v. slow perfusion, read-out: Diminution in the cardiac effort (IK)

For `COc1cc(/C=C/C(=O)N2CCN(CC(O)COc3ccc(NC(=O)NC4CCCCC4)c4c3OCCO4)CC2)cc(OC)c1OC` (stereo not shown) [770 081], the LD50 (in vivo; iv) was 148 mg/kg, the “Diminution in consumption of O2: in time” value (anaesthetized dog; 0.14 mg/kg i.v. slow perfusion) was 53 min and the “Diminution in the cardiac effort (IK): in time” value (“Diminution in the cardiac effort” below) (anaesthetized dog; 0.14 mg/kg i.v. slow perfusion) was 15 min. The inhibition in vivo at 0.14 mg/kg (anaesthetized dog; [1]) was 58% and the inhibition in vivo at 0.14 mg/kg (anaesthetized dog; [2]) was 20%.

`COc1cc(/C=C/C(=O)N2CCN(CC(O)COc3ccc(NC(=O)Nc4ccccc4)c4c3OCCO4)CC2)cc(OC)c1OC` (stereo not shown) [770 085] gave a mortality (in vivo; po, p.o.: 1855 mg/kg) of 0%, an inhibition in vivo at […] (anaesthetized dog; [3]) of 44% and an inhibition in vivo at […] (anaesthetized dog; [4]) of 14%.

For `COc1cccc(SCC(O)CN2CCN(C(=O)/C=C/c3cc(OC)c(OC)c(OC)c3)CC2)c1` (stereo not shown) [770 112], the LD50 (in vivo; iv) was 224 mg/kg, the “Diminution in consumption of O2: in time” value (anaesthetized dog; 2.3 mg/kg i.v. slow perfusion) was 23 min and the “Diminution in the cardiac effort” value (anaesthetized dog; 2.3 mg/kg i.v. slow perfusion) was 15 min. For the same molecule, the inhibition in vivo at 2.3 mg/kg (anaesthetized dog; Canis lupus familiaris, iv, 2.3 mg/kg i.v. slow perfusion, read-out: Diminution in consumption of O2) was 34% and the inhibition in vivo at 2.3 mg/kg (anaesthetized dog; Canis lupus familiaris, iv, 2.3 mg/kg i.v. slow perfusion, read-out: Diminution in the cardiac effort (IK)) was 7%.

With `CNC(=O)c1ccc(OCC(O)CN2CCN(C(=O)/C=C/c3cc(OC)c(OC)c(OC)c3)CC2)cc1` (stereo not shown) [770 135] the mortality (in vivo; iv, 400 mg/kg i.v.) was 0%, the “Diminution in consumption of O2: in time” value (anaesthetized dog; 1.25 mg/kg i.v. slow perfusion) was 30 min and the “Diminution in the cardiac effort” value (anaesthetized dog; 1.25 mg/kg i.v. slow perfusion) was 30 min. The inhibition in vivo at 1.25 mg/kg (anaesthetized dog; Canis lupus familiaris, iv, 1.25 mg/kg i.v. slow perfusion, read-out: Diminution in consumption of O2) was 40% and the inhibition in vivo at 1.25 mg/kg (anaesthetized dog; Canis lupus familiaris, iv, 1.25 mg/kg i.v. slow perfusion, read-out: Diminution in the cardiac effort (IK)) was 28%.

For `CCc1ccc(OCC(O)CN2CCN(C(=O)/C=C/c3cc(OC)c(OC)c(OC)c3)CC2)c2c1OCCO2` (stereo not shown) [770 142], the LD50 (in vivo; iv) was 116 mg/kg, the “Diminution in consumption of O2: in time” value (anaesthetized dog; 1.1 mg/kg i.v. slow perfusion) was 30 min and the inhibition in vivo at 1.1 mg/kg (anaesthetized dog; Canis lupus familiaris, iv, 1.1 mg/kg i.v. slow perfusion, read-out: Diminution in consumption of O2) was 29%.

In the case of `CC(=O)c1ccc(OCC(O)CN2CCN(C(=O)/C=C/c3ccc(F)cc3)CC2)c2c1OCCO2` (stereo not shown) [770 199], the LD50 (in vivo; iv) is reported as 328 mg/kg, the “Diminution in consumption of O2: in time” value (anaesthetized dog; 1.02 mg/kg i.v. slow perfusion) is reported as 15 min and the “Diminution in the cardiac effort” value (anaesthetized dog; 1.02 mg/kg i.v. slow perfusion) is reported as 15 min. For the same molecule, the inhibition in vivo at 1.02 mg/kg (anaesthetized dog; Canis lupus familiaris, iv, 1.02 mg/kg i.v. slow perfusion, read-out: Diminution in consumption of O2) was 29% and the inhibition in vivo at 1.02 mg/kg (anaesthetized dog; Canis lupus familiaris, iv, 1.02 mg/kg i.v. slow perfusion, read-out: Diminution in the cardiac effort (IK)) was 5%.

With `COc1cc(/C=C/C(=O)N2CCN(CC(O)COc3ccc(C(C)=O)c4c3OCCO4)CC2)cc(OC)c1O` (stereo not shown) [770 274, 1-[3-(4-acetyl-2,3-ethylenedioxy)phenoxy-2-hydroxy]propyl-4-(3,5-dimethoxy-4-hydroxycinnamoyl)piperazine oxalate] the mortality (in vivo; iv, 336 mg/kg i.v.) was 30%, the “Diminution in consumption of O2: in time” value (anaesthetized dog; 2.5 mg/kg i.v. slow perfusion) was 30 min and the “Diminution in the cardiac effort” value (anaesthetized dog; 2.5 mg/kg i.v. slow perfusion) was 15 min. For the same molecule, the inhibition in vivo at 2.5 mg/kg (anaesthetized dog; [5]) was 41% and the inhibition in vivo at 2.5 mg/kg (anaesthetized dog; [6]) was 10%.

With `COc1cc(/C=C/C(=O)N2CCN(CC(O)COCc3ccccc3)CC2)cc(OC)c1OC` (stereo not shown) [770 276] the LD50 (in vivo; iv) was 248 mg/kg, the “Diminution in consumption of O2: in time” value (anaesthetized dog; 2.5 mg/kg i.v. slow perfusion) was 23 min and the inhibition in vivo at 2.5 mg/kg (anaesthetized dog; [5]) was 59%.

In the case of `CCNC(=O)Nc1ccc(OCC(O)CN2CCN(C(=O)/C=C/c3cc(OC)c(OC)c(OC)c3)CC2)c2c1OCCO2` (stereo not shown) [770 307], the mortality (in vivo; iv, 367 mg/kg i.v.) is reported as 10%, the inhibition in vivo at […] (anaesthetized dog; [3]) is reported as 43% and the inhibition in vivo at […] (anaesthetized dog; [4]) is reported as 11%.

For `CCOC(=O)Cc1ccc(OCC(O)CN2CCN(C(=O)/C=C/c3cc(OC)c(OC)c(OC)c3)CC2)c2c1OCCO2` (stereo not shown) [770 312], the LD50 (in vivo; iv) was 259 mg/kg, the “Diminution in consumption of O2: in time” value (anaesthetized dog; 0.14 mg/kg i.v. slow perfusion) was 30 min and the inhibition in vivo at 0.14 mg/kg (anaesthetized dog; [1]) was 30%. The inhibition in vivo at 0.14 mg/kg (anaesthetized dog; [2]) was 9%.

In the case of `CNC(=O)Cc1ccc(OCC(O)CN2CCN(C(=O)/C=C/c3cc(OC)c(OC)c(OC)c3)CC2)c2c1OCCO2` (stereo not shown) [770 382], the mortality (in vivo; iv, 400 mg/kg i.v.) is reported as 30%, the “Diminution in consumption of O2: in time” value (anaesthetized dog; [7]) is reported as 15 min and the “Diminution in the cardiac effort” value (anaesthetized dog; [7]) is reported as 15 min. For the same molecule, the inhibition in vivo at 0.625 mg/kg (anaesthetized dog; [8]) was 36% and the inhibition in vivo at 0.625 mg/kg (anaesthetized dog; [9]) was 16%.

For `COc1cc(/C=C/C(=O)N2CCN(CC(O)COc3ccc(CC(N)=O)c4c3OCCO4)CC2)cc(OC)c1OC` (stereo not shown) [770 386], the mortality (in vivo; iv, 400 mg/kg i.v.) was 20%, the “Diminution in consumption of O2: in time” value (anaesthetized dog; [7]) was 30 min and the “Diminution in the cardiac effort” value (anaesthetized dog; [7]) was 30 min. For the same molecule, the inhibition in vivo at 0.625 mg/kg (anaesthetized dog; [8]) was 41% and the inhibition in vivo at 0.625 mg/kg (anaesthetized dog; [9]) was 20%.

`CCCNC(=O)Nc1ccc(OCC(O)CN2CCN(C(=O)/C=C/c3cc(OC)c(OC)c(OC)c3)CC2)c2c1OCCO2` (stereo not shown) [770 483] showed a mortality (in vivo; po, p.o.: 2000 mg/kg) of 0%, an inhibition in vivo at […] (anaesthetized dog; [3]) of 74% and an inhibition in vivo at […] (anaesthetized dog; [4]) of 16%.

In the case of `COc1cc(NC(C)=O)ccc1OCC(O)CN1CCN(C(=O)/C=C/c2cc(OC)c(OC)c(OC)c2)CC1` (stereo not shown) [770 487], the mortality (in vivo; iv, 400 mg/kg i.v.) is reported as 30%, the “Diminution in consumption of O2: in time” value (anaesthetized dog; 2.5 mg/kg i.v. slow perfusion) is reported as 60 min and the inhibition in vivo at 2.5 mg/kg (anaesthetized dog; [5]) is reported as 47%. The inhibition in vivo at 2.5 mg/kg (anaesthetized dog; [6]) was 14%.
